How the values were obtained:
[1] = test system: 'CCR5' cells / Hut/4-3 cells co-cultivation; assay: FIGS-Assay; type: cell-based; conditions: 200 nM peptide, 48 hours of co-cultivation
Method: The assay was performed according to ref. 5, below. Stock dilutions of the peptides (10 mM) were prepared by dissolving in 10 mM Tris-HCl at room temperature. Stock solutions were kept at +4° C., light protected. Working dilutions were prepared extemporaneously by serial dilution in Phosphate Buffered Saline (PBS) and added in a final volume of 10 μl directly to the cell cultures. After 48 hours of co-cultivation the cultures were rinsed with PBS and then exposed to glutaraldehyde/formaldehyde (0.2%/2%) in PBS for five minutes. For photometric quantification the fixed cultures were subsequently incubated with ortho-nitro-phenyl-galactopyranoside (ONPG) as a β-galactosidase substrate, which was enzymatically converted into the chromophore ortho-nitrophenol (ONP). The read out is directly obtained by measuring optical density of wells at 405 nm in an iEMS 96well-plate reader.
(§1) All fine chemicals came from Merck (Darmstadt, Germany).

CCRF-CEM cells = assay: Chemotactic assay (cell migration assay); type: cell-based; conditions: 1 nM SDF-1, 4 hours
Method: as §1
2.7. Chemotactic Assay (Cell Migration Assay)
The chemotactic response of CCRF-CEM cells to a gradient of stromal cell-derived factor 1α (SDF-1) was measured using disposable assay plates from Neuroprobe (5μ pore size) (Gaithersburg, Md.), according to the manufacturer's directions and references therein [especially ref. 8, below]. Briefly, one 175 cm^2 flask was washed once with Dubecco's phosphate buffered saline (DPBS), and trypsinized for 10 minutes or until cells had lifted. The trypsin was neutralized by the addition of fresh medium containing serum and the cells were pelleted, washed once in DPBS, and resuspended at 1-0.5×10^7 cells/ml in RPMI+0.5% bovine serum albumin (BSA). 45 μl of cell suspension were mixed with 5 μl of 10-fold concentrated PEM peptide diluted in the same assay medium. […] The optical absorbance at 595 nm (ABS595) was read using a Tecan Genios plate reader with Magellan software. The number of cells migrated was determined by comparing ABS595 values against a standard curve generated with a known number of cells in the assay plate and were plotted against SDF-1 concentration to obtain a sigmoidal curve and to determine the IC50 values. The values for IC50 were determined using the Trendline function in Microsoft Excel by fitting a logarithmic curve to the averaged datapoints.

[2] = Pharmacokinetic study (PK) after single i.v. and i.p. administration; type: in vivo, male CD-1 mice
Method: 2.9. Pharmacokinetic Study (PK)
30 grams (±20%) male CD-1 mice obtained from Charles River Laboratories Deutschland GmbH were used in the study. The vehicle, physiological saline, was added to give a final concentration of 1 mg/ml of the compounds. […] Approximately 250-300 μl of blood was removed under light isoflurane anesthesia from the retro-orbital plexus at predetermined time intervals (0, 5, 15, 30 min and 1, 2 and 3 hours for the i.v. study and 0, 15, 30 min and 1, 2, 4 and 8 hours for the i.p. study) and added to heparinized tubes. Plasma was removed from pelleted cells upon centrifugation and frozen at −80° C. prior to HPLC-MS analysis.
Preparation of the Plasma Calibration Samples
“Blank” mouse plasma from untreated animals was used. […] The OASIS® HLB cartridges were conditioned with 1 ml of methanol and then with 1 ml of 1% NH3 in water. Samples were then diluted with 700 μl of 1% NH3 in water and loaded.
The plate was washed with 1 ml of methanol/1% NH3 in water 5/95. Elution was performed using 1 ml of 0.1% TFA in methanol.
The plate containing eluates was introduced into the concentrator system and taken to dryness. The residues were dissolved in 100 μL of formic acid 0.1%/acetonitrile, 95/5 (v/v) and analysed in the HPLC/MS on a reverse phase analytical column (Jupiter C18, 50×2.0 mm, 5 μm, Phenomenex), using gradient elution (mobile phases A: 0.1% formic acid in water, B: Acetonitrile; from 5% B to 100% B in 2 min.).
Preparation of Plasma Samples
Samples coming from animal treatments were pooled in order to obtain an appropriate volume for the extraction. If the total volume obtained was less than 0.2 ml the appropriate amount of “blank” mouse plasma was added in order to keep the matrix identical to the calibration curve. Samples were than spiked with IS and processed as described for the calibration curve.
Pharmacokinetic Evaluation
PK analysis was performed on pooled data (generally n=2 or 3) using the software PK solutions 2.0™ (Summit Research Service, Montrose, Colo. 81401 USA). The area under the curve AUC was calculated by the linear trapezoidal rule. AUC(t-∞) was estimated as Ct/b (b: elimination rate constant). […] the sum of AUC(0-t) and AUC(t-∞). Elimination half-life was calculated by the linear regression on at least three data points during the elimination phase. The time intervals selected for the half-life determinations were evaluated by the correlation coefficient (r^2), which should be at least above 0.85 and most optimally above 0.96. In case of i.v. administration the initial concentration at tzero was determined by extrapolation of the curve through the first two time points. Finally bioavailability after i.p. administration was calculated from the normalised AUC(0-∞) ration after i.p. versus i.v. administration.

[3] = Cytotoxicity assay (MTT reduction), HELA cells; conditions: human, HELA cells (Acc57);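 note: MTT reduction read as absorbance at 595 nm, blank-corrected and expressed as percent growth relative to the time-zero cell reading, triplicate wells per concentration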
[4] = male, CD-1, mouse, in vivo, ip, 10 mg/kg
[5] = male, CD-1, mouse, in vivo, iv, 2 mg/kg

Q: Which “FIGS % inhibition at 200 nM” value [1] does the source give for `N=C(N)NCCC[C@@H]1NC(=O)[C@@H]2CSSC[C@H](NC(=O)[C@H](Cc3ccc4ccccc4c3)NC(=O)[C@H](CCCNC(=N)N)NC(=O)[C@H](CCCNC(=N)N)NC(=O)[C@H]3CCCN3C(=O)CNC1=O)C(=O)N[C@@H](Cc1ccc(O)cc1)C(=O)N[C@@H](CCCNC(N)=O)C(=O)N[C@@H](CCCCN)C(=O)N1CCC[C@@H]1C(=O)N1CCC[C@H]1C(=O)N[C@@H](Cc1ccc(O)cc1)C(=O)N[C@@H](CCCNC(=N)N)C(=O)N[C@@H](CCCNC(N)=O)C(=O)N2` [Ex. 51] here?
A: Its value is 93.9%.

Q: What about the IC50 (CCRF-CEM cells) of the same compound?
A: Its IC50 is 0.275 µM.

Q: What about the “times lower normalised Cmax after i.p. administration versus i.v.” value ([2]; i.p. 10 mg/kg versus i.v. 2 mg/kg, mouse) of the same compound?
A: Its value is 45 times.

Q: What about the AUC [2, 4] of the same compound?
A: Its AUC is 1300 ng·h/mL.

Q: What about the AUC(0-inf) [2, 4] of the same compound?
A: Its AUC(0-inf) is 12900 ng·h/mL.

Q: What about the AUC(0-t) [2, 4] of the same compound?
A: Its AUC(0-t) is 11100 ng·h/mL.

Q: And the Tmax [2, 4]?
A: The Tmax was 2 h.

Q: What about the half-life [2, 4] of the same compound?
A: The half-life was 2.5 h.

Q: What about the level at 0.25 h [2, 4] of the same compound?
A: The level at 0.25 h was 673 ng/mL.

Q: And the level at 0.5 h [2, 4]?
A: Its level at 0.5 h is 1570 ng/mL.

Q: And the level at 1 h [2, 4]?
A: Its level at 1 h is 2010 ng/mL.

Q: What about the level at 2 h [2, 4] of the same compound?
A: The level at 2 h was 3160 ng/mL.

Q: What about the level at 4 h [2, 4] of the same compound?
A: Its level at 4 h is 1020 ng/mL.

Q: And the level at 8 h [2, 4]?
A: Its level at 8 h is 519 ng/mL.

Q: And the Cmax ([2]; male, CD-1, mouse, in vivo, ip, 10 mg/kg, Cmax ng/ml)?
A: Its Cmax is 3160 ng/mL.

Q: What about the Cmax ([2]; male, CD-1, mouse, in vivo, ip, 10 mg/kg, Cmax norm.) of the same compound?
A: The Cmax was 316 ng/mL.

Q: And the AUC [2, 5]?
A: Its AUC is 953 ng·h/mL.

Q: And the AUC(0-inf) [2, 5]?
A: Its AUC(0-inf) is 1900 ng·h/mL.

Q: And the AUC(0-t) [2, 5]?
A: The AUC(0-t) was 1700 ng·h/mL.

Q: And the Tmax [2, 5]?
A: The Tmax was 0 h.

Q: And the half-life [2, 5]?
A: Its half-life is 2.8 h.

Q: And the level at 0.083 h [2, 5]?
A: The level at 0.083 h was 1460 ng/mL.

Q: What about the level at 0.25 h [2, 5] of the same compound?
A: Its level at 0.25 h is 328 ng/mL.

Q: What about the level at 0.5 h [2, 5] of the same compound?
A: The level at 0.5 h was 300 ng/mL.

Q: What about the level at 1 h [2, 5] of the same compound?
A: The level at 1 h was 80 ng/mL.

Q: And the level at 2 h [2, 5]?
A: The level at 2 h was 68 ng/mL.

Q: And the level at 3 h [2, 5]?
A: Its level at 3 h is 49 ng/mL.

Q: What about the Cmax ([2]; male, CD-1, mouse, in vivo, iv, 2 mg/kg, Cmax ng/ml (extrapolated Cinitial)) of the same compound?
A: The Cmax was 28600 ng/mL.

Q: What about the Cmax ([2]; male, CD-1, mouse, in vivo, iv, 2 mg/kg, Cmax observed) of the same compound?
A: The Cmax was 1460 ng/mL.

Q: And the “% absorbed (F) (percentage of normalized AUC0-inf. intraperitoneal against normalized AUC0-inf i.v.)” value ([2]; mouse, in vivo, 2 mg/kg)?
A: Its value is 100%.

Q: And the “% absorbed (F) (percentage of normalized AUC0-inf. intraperitoneal against normalized AUC0-inf i.v.)” value ([2]; mouse, in vivo, 10 mg/kg)?
A: The value was 136%.

Q: What about the “β” value ([2]; mouse, in vivo, ip, 10 mg/kg) of the same compound?
A: The value was 0.28 h⁻¹.

Q: And the “β” value ([2]; mouse, in vivo, iv, 2 mg/kg)?
A: The value was 0.24 h⁻¹.

Q: What about the CC50 at 48 h [3] of the same compound?
A: The CC50 at 48 h was 97 µM.

Source: patent publication US8895695B2, “Template-fixed beta-hairpin peptidomimetics with CXCR4 antagonizing activity” (priority 2003, dated 2014)
